Source: patent US20240083949A1, “CELL PENETRATING PEPTIDE COMPOSITIONS AND METHODS THEREOF” (The Regents of the University of California, priority 2022, published 2024)
“Also recorded” adds a separate entry of the source. Starred links: 1 amine or outer side, 2 acyl side, 3 side chain; linkers in the order of their positions; H or OH if unused. Positions of bridges follow the written chain, without caps; N, C: chain ends. Non-standard residues stand in square brackets, D forms with d. Residues, ends and D or L forms follow the SMILES beside them. Triazole bridges read from a SMILES are 1,4-linked. ξ: configuration not given here. *: point of attachment. RhodamineB = CCN(CC)c1ccc2c(-c3ccccc3C(=O)*)c3ccc(=[N+](CC)CC)cc-3oc2c1; X1 = Nc1ccn([C@@H]2O[C@H](COC(=O)CCC(=O)*)[C@@H](O)C2(F)F)c(=O)n1; Lys(N3) = [N-]=[N+]=NCCCC[C@H](N)C(=O)O; ξLys(N3) = [N-]=[N+]=NCCCCC(N)C(=O)O; NMeGABA = CN(CCCC(=O)[*:2])[*:1]; dPra = C#CC[C@@H](N)C(=O)O; Pra = C#CC[C@H](N)C(=O)O

Tests used:
Lipid binding assay = details: liposomes, RB-EPP6 1 nM to 10 μM
Protocol: Lipid binding assay. 95% egg PC, 5% nitrobenzoxadiazole (NBD) were added to 1% cholesterol, PE, PG, ganglioside, SM and PA to make liposomes individually. RB-EPP 6 was diluted with HEPES buffer to different concentrations, ranging from 1 nM to 10 μM. For each lipid type, 400 μl liposomes of 50 μg/ml were added to 400 μl of each RB-EPP 6 concentration. The mixture was incubated at room temperature for 15 min. 80 μl of each condition was collected to measure the fluorescence intensity of NBD suing the Synergy H1 microplate reader.

U87 cells [1] = experiment: Temperature control comparison experiment (RB-EPP6 uptake at 37° C. and 4° C.); format: cell-based, human; details: 500 nM, 1 h
Protocol: (§1) Confocal Imaging experiments. To image the cells, a Zeiss 880 inverted confocal laser scanning microscope (Carl Zeiss, Germany) was used. Image acquisition and analyses were carried out using the manufacturer's software (ZEN, Carl Zeiss). Quantification of fluorescence intensity in single cells was performed using Fiji software.
Temperature control comparison experiment. U87 cells were kept in the cold room for half an hour before incubated with RB-EPP 6. After that, cells were incubated with RB-EPP 6 at 500 nM at 4° C. Cells in the control group were incubated at 37° C. After 1 h, cells were wash with fresh medium once respectively before confocal imaging.

U87 cells [2] = experiment: Colocalization of RB-EPP6 with mEmerald-caveolin and mEmerald-clathrin; format: cell-based, human; details: transfected U87 cells, confocal
Protocol: as §1
(§2) Plasmid transfection assays. 300 k U87 cells were seeded in the 35×10 mm dish for overnight culture. Plasmids (caveolin, 75 ng; clathrin, 100 ng; rab5, 100 ng; rab7a, 10 ng; caveolin-1 CRISPR/Cas9 KO, 3 μg; FIBCD1 CRISPR/Cas9 KO, 3 ug; Control CRISPR, 3 ug) were diluted with Plasmid Transfection Medium (sc-108062) to 50 μl. UltraCruz Transfection Reagent (Santa Cruz Biotechnology) was also diluted with Plasmid Transfection Medium to 50 μl. Plasmids and transfection reagent were mixed well and kept at room temperature for 20 min. Replace the cells with PS free medium and add the mixture to the cells, culture for another 24 h.

U87 = experiment: Confocal microscopy for internalization of EPP6-GEM; format: cell-based, human; details: 500 nM, U87 cells
Protocol: After purification of this conjugate, EPP6-GEM was dissolved in DMSO and diluted to 500 nM in full media (DMEM) and administered to the immortalized glioblastoma cell line U87. These cells were monitored using Confocal Microscopy for internalization of the conjugate. FIGS. 11A-11C show three images of U87 cells with different combinations of dyes internalized. […] EPP6-GEM has been outfitted with a Rhodamine B dye. […] Cell viability experiments were carried out to determine if the conjugate can kill cells at a similar rate to the free drug or at an improved rate.

[3] = Octanol-water partition assay; format: physicochemical
Protocol: Octanol-water partition assay. For each RB-EPP, pre-mix 250 μl of octanol with 250 μl of water in a 1.5 ml centrifuge tube. 2 μl of RB-EPP was added to the solution at the concentration of 500 μM. After vortex the mixture, centrifuge at the highest speed for 10 min to separate the octanol and water phases. Samples were collected from both phases and quantified by the Analytical HPLC separately.

U87 cells [4] = experiment: Intracellular trafficking of EPP6 conjugates (endosome markers, organelle trackers, time series, EB staining); format: cell-based, human
Protocol: Time series experiment. U87 Cells were incubated with RB-EPP 6 at 500 nM for 1 h. After wash with fresh medium once, the cells were kept in the 5% CO2 incubator at 37° C. for different time durations (1 h, 2 h, 6 h and 24 h) before confocal imaging.
Organelle tracker colocalization experiment. Stock solution of trackers for mitochondria, lysosome and ER were diluted with cell culture medium into 100 nM, 500 nM and 4 μM respectively. RB-EPP 6 was added into each working solution at 500 nM. U87 cells were incubated with the both trackers and RB-EPP 6 for 1 h and then washed once before confocal imaging.
as §2
Ethidium bromide (EB) staining. U87 cells were incubated with 2 μg/ml EB with or without the conjugation of EPP6 for an hour, 3 hours and 6 hours respectively. After 1 h and the cells were washed with fresh phenol-free media once before confocal imaging.
Statistical analysis. Pearson's correlation coefficient was used to calculate correlation between RB and tracker channels in the organelle tracker experiment. Graph generation and statistical analyses were performed using Fiji software.

[5] = MDCK, MDCK monolayer, trans-well, three hours of incubation, 10 μM
Protocol: (§4) MDCK transwell assay. 200 k MDCK cells were seeded in 200 μl in complete growth media to the apical side of a transwell insert (12-well 8 μm pore size Transwell-65 mm). In addition, 1 ml complete growth media is added to the basolateral chamber. […] Incubate the plate for 2-3 days at 37° C. with 5% CO2. The electrical resistance of MDCK transwell inserts was measured using EVOM Epithelial Voltohmmeter to measure the integrity of tight junctions the following two days. On day 3, serum free media was used to wash both the apical (200 μl) and basolateral (1 ml) wells three times. Cells were kept in a 37° C./5% CO2 cell incubator equilibrating for 15 min.
(§5) The assay was carried out in both apical to basolateral and basolateral to apical direction. […] For the assay with apical to basolateral direction, the apical chamber was replaced with 200 μl testing compounds. For the assay with basolateral to apical direction, the basolateral chamber was replaced with 1 ml testing compounds. Both plates were incubated in the cell culture incubator for 3 h. After that, 80 μl of the samples were collected from each chamber for RB fluorescence intensity reading using a Synergy H1 microplate reader.

MDCK cells = details: MDCK monolayer, trans-well, three hours
Protocol: as §4, §5

U87 cells [6] = experiment: RB-EPP6 uptake after caveolin CRISPR knockout; format: cell-based, human; details: data not shown
Protocol: as §2

U87 cells [7] = experiment: Confocal imaging of Dye-EPP uptake in U87 cells; format: cell-based, human; details: RB-tagged EPPs, U87 cells, confocal imaging, ranking among EPP1-7
Protocol: as §1
Dye-EPP incubation. For general incubation, 300 k U87 cells were seeded in full medium containing 10% FBS and 1% PS in a 35×10 mm petri dish. The cells were incubated overnight in full medium. Stock solution of Dye-EPPs were made in DMSO to reach a concentration of 500 μM. Fresh cell culture medium was used to dilute the stock solution to 500 nM and replace the old medium on day 2. Cells were incubated with RB-EPPs for different time periods, followed by a one-time wash with phenol-free fresh culture medium before measurements.
Concentration gradient experiment. U87 Cells were incubated with RB-EPP 6 at different concentrations (20 nM, 200 nM, 2 μM, 20 μM, 50 μM and 100 μM). After wash with fresh medium once cells were examined by confocal imaging.

FIBCD1-KO U87 cell line = details: 500 nM, FIBCD1-KO U87 cells, crystal violet
Description: (§3) Crystal violet staining is a cell viability test used to determine if a drug or molecule is killing cells based on the difference in cell number from the untreated control. U87 cells are an adherent cell line if they are alive and healthy, they attach securely to the bottom of the petri dish. Herein we passaged U87 cells into a 96-well plate and made quadruplets for each concentration of the drug we planned to use. After staining the cells that remained after treatment with both the drug and the EPP6-GEM conjugate, the cells were then photographed with a cell phone and compared to the control wells (FIGS. 12A-13C).

U87 cells [8] = details: 500 nM, crystal violet
Description: as §3

| Compound | interaction with lipid components (Lipid binding assay) | uptake at low temperature (U87 cells [1]) | colocalization with mEmerald-caveolin (U87 cells [2]) | colocalization with mEmerald-clathrin (U87 cells [2]) | internalization (Rhodamine B signal) (U87) | hydrophobicity (octanol partitioning) [3] | localization in early endosomes (Rab5) (U87 cells [4]; EGFP-Rab5, after 15-min) | trafficking into mitochondria or endoplasmic reticulum (U87 cells [4]; MitoTracker, ERTracker) | localization in lysosomes (LysoTracker) (U87 cells [4]; after 3 hours) | retention in Rab7a+ vesicles (U87 cells [4]; after 4 hours) | remaining intracellular signal (U87 cells [4]; after 24 hours) | endosomal escape to cytosol (U87 cells [4]; imaging) | time to traffic into late endosomes (U87 cells [4]; mEmerald-Rab7a) [min] | Papp [5] [×10⁻⁶ cm/s] | Papp relative to RB-TAT (MDCK cells) | uptake after CRISPR caveolin (U87 cells [6]) | ability to enter the cells (intracellular fluorescence) (U87 cells [7]) | cell killing compared with free drug (FIBCD1-KO U87 cell line) | cell killing compared with free drug (U87 cells [8]) |
| --- | --- | --- | --- | --- | --- | --- | --- | --- | --- | --- | --- | --- | --- | --- | --- | --- | --- | --- | --- |
| CCN(CC)c1ccc2c(-c3ccccc3C(=O)N(C)CCCC(=O)N[C@H]3Cc4cn(nn4)CCCC[C@@H](C(N)=O)NC(=O)[C@H](CO)NC(=O)[C@H](Cc4ccc(O)cc4)NC(=O)[C@H](Cc4ccc(O)cc4)NC(=O)[C@H](CO)NC(=O)[C@H](Cc4ccc(O)cc4)NC3=O)c3ccc(=[N+](CC)CC)cc-3oc2c1 [RB-EPP6, RB-cy(YSYYS)] (RhodamineB-[NMeGABA][Pra]YSYYS[Lys(N3)]-NH2; triazole 2-8; N-terminus and C-terminus assumed) | no appreciable interaction; also recorded: no significant interaction | no RB-EPP6 uptake; also recorded: no fluorescence signal in the cells | significantly overlapped | no overlap | much higher signals | hydrophilic | appeared in distinct Rab5-coated vesicles | did not traffic into the mitochondria or the endoplasmic reticulum | some RB-EPP6 signals appeared in lysosomes | a significant amount of RB-EPP6 remained inside Rab7a+vesicles | some signals remained | could escape from the endosomes and enter the cytosol | ≤ 30 | 5.25 | more than twice that of RB-TAT | decreased | best performing |  |  |
| CCN(CC)c1ccc2c(-c3ccccc3C(=O)N(C)CCCC(=O)N[C@@H](CCCCNC(=O)CCC(=O)OC[C@H]3O[C@@H](n4ccc(N)nc4=O)C(F)(F)[C@@H]3O)C(=O)N[C@@H]3Cc4cn(nn4)CCCCC(C(N)=O)NC(=O)[C@H](CO)NC(=O)[C@H](Cc4ccc(O)cc4)NC(=O)[C@H](Cc4ccc(O)cc4)NC(=O)[C@H](CO)NC(=O)[C@H](Cc4ccc(O)cc4)NC3=O)c3ccc(=[N+](CC)CC)cc-3oc2c1 (some centres unmarked) [EPP6-GEM] (RhodamineB-[NMeGABA]K(X1)[dPra]YSYYS[ξLys(N3)]-NH2; triazole 3-9) |  |  |  |  | some internalization is occurring |  |  |  |  |  |  |  |  |  |  |  |  | cannot perform significantly better than the free drug | can kill the cells more effectively than the free drug |
